Data taken from patent publication US7138361B2, “Herbicidal heterocycles” (E. I. du Pont de Nemours and Company, priority 2000, dated 2006).

How the values were obtained:
Assay type in all cases: in vivo
[1] = tested on: barnyardgrass (Echinochloa crus-galli); assay: Test B postemergence; details: 13 to 15 days
Outline: (§1)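 Ratings on a 0 to 100 visual scale (100 complete control) compare treated plants with controls 13 to 15 days after application. Treatments were pre- or postemergence sprays of compound in non-phytotoxic solvent with surfactant.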

corn (Zea mays) [2] = assay: Test B postemergence; details: 13 to 15 days
Outline: as §1

[3] = tested on: wheat (Triticum aestivum); assay: Test B postemergence; details: 13 to 15 days
Outline: as §1

wild oat (Avena fatua) = assay: Test B postemergence; details: 13 to 15 days
Outline: as §1

Nightshade [4] = assay: Test C preemergence
corn (Zea mays) [5] = assay: Test C preemergence; details: for Plant response rating (0 to 100), Corn: visual evaluation after 12 to 14 days
Outline: (§2)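 Seeds are planted and treated before emergence; for the postemergence test, plants at 1- to 4-leaf stage (2–18 cm) receive the same formulation, a solvent blend containing surfactant. Plants stay in the greenhouse 12–14 days, then response is scored visually from 0 (none) to 100 (complete control).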

[6] = tested on: johnsongrass (Sorghum halepense); assay: Test C preemergence; details: for Plant response rating (0 to 100), Johnsongrass: visual evaluation after 12 to 14 days
Outline: as §2

kochia (Kochia scoparia) = assay: Test C preemergence; details: for Plant response rating (0 to 100), Kochia: Rate 250 g/ha, visual evaluation after 12 to 14 days
Outline: as §2

[7] = tested on: lambsquarters (Chenopodium album); assay: Test C preemergence; details: for Plant response rating (0 to 100), Lambsquarters: visual evaluation after 12 to 14 days
Outline: as §2

[8] = tested on: pigweed (Amaranthus retroflexus); assay: Test C preemergence; details: for Plant response rating (0 to 100), Pigweed: visual evaluation after 12 to 14 days
Outline: as §2

soybean (Glycine max) = assay: Test C preemergence; details: for Plant response rating (0 to 100), Soybean: visual evaluation after 12 to 14 days
Outline: as §2

[9] = tested on: woolly cupgrass (Eriochloa villosa); assay: Test C preemergence; details: for Plant response rating (0 to 100), Cupgrass, Woolly: visual evaluation after 12 to 14 days
Outline: as §2

[10] = tested on: yellow nutsedge (Cyperus esculentus); assay: Test C preemergence; details: for Plant response rating (0 to 100), Nutsedge: visual evaluation after 12 to 14 days
Outline: as §2

[11] = tested on: barnyardgrass (Echinochloa crus-galli); assay: Test C flooded paddy test; details: for Barnyardgrass plant response rating: Flooded Paddy, scale 0 to 100, 0 no effect, 100 complete control; for Plant response rating, Barnyardgrass: flooded paddy test, scale 0 to 100 (0 no effect, 100 complete control)
Outline: (§3)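 Visual injury score, 0 (no effect) to 100 (complete control), relative to controls. Paddy plants treated at 2-leaf stage; greenhouse hold 12–14 d before rating.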

[12] = tested on: duck salad (Heteranthera limosa); assay: Test C flooded paddy test; details: for Ducksalad plant response rating: Flooded Paddy, scale 0 to 100, 0 no effect, 100 complete control; for Plant response rating, Ducksalad: flooded paddy test, scale 0 to 100 (0 no effect, 100 complete control)
Outline: as §3

rice (Oryza saliva) = assay: Test C flooded paddy test; details: for Rice plant response rating: Flooded Paddy, scale 0 to 100, 0 no effect, 100 complete control; for Plant response rating, Rice: flooded paddy test, scale 0 to 100 (0 no effect, 100 complete control)
Outline: as §3

[13] = tested on: smallflower flatsedge (Cyperus difformis); assay: Test C flooded paddy test; details: for Flatsedge plant response rating: Flooded Paddy, scale 0 to 100, 0 no effect, 100 complete control; for Plant response rating, Flatsedge: flooded paddy test, scale 0 to 100 (0 no effect, 100 complete control)
Outline: as §3

Nightshade [14] = assay: Test C preemergence; details: visual evaluation after 12 to 14 days
Sunflower = assay: Test C preemergence; details: scale 0 to 100, 0 no effect, 100 complete control
[15] = Rate 125 g/ha, scale 0 (no effect) to 100 (complete control)
[16] = Rate 500 g/ha, scale 0 to 100, 0 is no effect, 100 is complete control
[17] = Rate 62 g/ha; scale 0 to 100, 0 no effect, 100 complete control
[18] = Rate 62 g/ha, scale 0 to 100, 0 no effect, 100 complete control
[19] = Rate 125 g/ha, scale 0 to 100, 0 no effect, 100 complete control
[20] = preemergence, Rate 250 g/ha, scale 0 to 100, 0 no effect, 100 complete control
[21] = Preemergence, Rate 500 g/ha, scale 0 to 100
[22] = preemergence, Rate 125 g/ha, scale 0 to 100, 0 no effect, 100 complete control

SMILES: CC(C)(C)c1ccn(C2CCN(c3ccc(F)c(Br)c3)C2=O)n1 (stereo not drawn) [Compound 75]
- Plant response rating, Barnyardgrass [1, 15]: 0
- Plant response rating, Barnyardgrass [1, 16]: 0
- Plant response rating, Corn (corn (Zea mays) [2]; [15]): 0
- Plant response rating, Corn (corn (Zea mays) [2]; [16]): 0
- Plant response rating, Wheat [3, 15]: 0
- Plant response rating, Wheat [3, 16]: 0
- Plant response rating, Wild Oat (wild oat (Avena fatua); [15]): 0
- Plant response rating, Wild Oat (wild oat (Avena fatua); [16]): 0
- Plant response rating, Nightshade (Nightshade [4]; [17]): 0
- Plant response rating, Nightshade (Nightshade [4]; Rate 125 g/ha; scale 0 to 100, 0 no effect, 100 complete control): 0
- Plant response rating, Nightshade (Nightshade [4]; Rate 250 g/ha, scale 0 to 100, 0 no effect, 100 complete control): 0
- Plant response rating, Corn (corn (Zea mays) [5]; [18]): 0
- Plant response rating, Corn (corn (Zea mays) [5]; [19]): 0
- Plant response rating (0 to 100), Corn (corn (Zea mays) [5]; preemergence, Rate 250 g/ha): 0
- Plant response rating (0 to 100), Corn (corn (Zea mays) [5]; preemergence, Rate 500 g/ha): 0
- Plant response rating, Johnsongrass [6, 18]: 0
- Plant response rating, Johnsongrass [6, 19]: 0
- Plant response rating (0 to 100), Johnsongrass ([6]; preemergence, Rate 250 g/ha): 30
- Plant response rating (0 to 100), Johnsongrass ([6]; preemergence, Rate 500 g/ha): 30
- Plant response rating, Kochia (kochia (Kochia scoparia); [18]): 100
- Plant response rating, Kochia (kochia (Kochia scoparia); [19]): 100
- Plant response rating (0 to 100), Kochia (kochia (Kochia scoparia); preemergence): 100
- Plant response rating, Lambsquarters [7, 18]: 100
- Plant response rating, Lambsquarters [7, 19]: 100
- Plant response rating (0 to 100), Lambsquarters ([7]; preemergence, Rate 500 g/ha): 100
- Plant response rating, Lambsquarters [7, 20]: 100
- Plant response rating, Pigweed [8, 19]: 100
- Plant response rating (0 to 100), Pigweed ([8]; preemergence, Rate 500 g/ha): 100
- Plant response rating, Pigweed [8, 20]: 100
- Plant response rating, Soybean (soybean (Glycine max); [19]): 0
- Plant response rating (0 to 100), Soybean (soybean (Glycine max); preemergence, Rate 500 g/ha): 50
- Plant response rating, Soybean (soybean (Glycine max); [20]): 0
- Plant response rating, Cupgrass, Woolly [9, 18]: 60
- Plant response rating, Cupgrass, Woolly [9, 19]: 80
- Plant response rating (0 to 100), Cupgrass, Woolly ([9]; preemergence, Rate 250 g/ha): 100
- Plant response rating (0 to 100), Cupgrass, Woolly ([9]; preemergence, Rate 500 g/ha): 100
- Plant response rating, Nutsedge [10, 18]: 0
- Plant response rating, Nutsedge [10, 19]: 0
- Plant response rating (0 to 100), Nutsedge ([10]; preemergence, Rate 500 g/ha): 50
- Plant response rating, Nutsedge [10, 20]: 50
- Barnyardgrass plant response rating ([11]; Rate 250 g/ha): 80
- Barnyardgrass plant response rating ([11]; Rate 500 g/ha): 100
- Plant response rating, Barnyardgrass ([11]; Rate 62 g/ha): 70
- Ducksalad plant response rating ([12]; Rate 500 g/ha): 90
- Plant response rating, Ducksalad ([12]; Rate 62 g/ha): 70
- Plant response rating, Ducksalad ([12]; Rate 125 g/ha): 80
- Rice plant response rating (rice (Oryza saliva); Rate 250 g/ha): 30
- Rice plant response rating (rice (Oryza saliva); Rate 500 g/ha): 40
- Plant response rating, Rice (rice (Oryza saliva); Rate 62 g/ha): 0
- Plant response rating, Rice (rice (Oryza saliva); Rate 125 g/ha): 0
- Flatsedge plant response rating ([13]; Rate 250 g/ha): 100
- Flatsedge plant response rating ([13]; Rate 500 g/ha): 100
- Plant response rating, Flatsedge ([13]; Rate 62 g/ha): 90
- Plant response rating, Flatsedge ([13]; Rate 125 g/ha): 90
- Plant response rating (0 to 100), Nightshade (Nightshade [14]; Rate 500 g/ha): 50
- Plant response rating, Sunflower (Sunflower; Rate 250 g/ha): 0

SMILES: O=C1C(n2ccc(C3CCCCC3)n2)SCN1c1cccc(C(F)(F)F)c1 (stereo not drawn) [Compound 52]
- Plant response rating, Barnyardgrass [1, 15]: 0
- Plant response rating, Barnyardgrass [1, 16]: 0
- Plant response rating, Corn (corn (Zea mays) [2]; [15]): 20
- Plant response rating, Corn (corn (Zea mays) [2]; [16]): 20
- Plant response rating, Wheat [3, 15]: 0
- Plant response rating, Wheat [3, 16]: 0
- Plant response rating, Wild Oat (wild oat (Avena fatua); [15]): 0
- Plant response rating, Wild Oat (wild oat (Avena fatua); [16]): 0
- Plant response rating, Nightshade (Nightshade [4]; [17]): 30
- Plant response rating, Nightshade (Nightshade [4]; [19]): 30
- Plant response rating, Nightshade (Nightshade [4]; Rate 500 g/ha, scale 0 to 100): 50
- Plant response rating, Corn (corn (Zea mays) [5]; [21]): 40
- Plant response rating, Corn (corn (Zea mays) [5]; [18]): 0
- Plant response rating (0 to 100), Corn (corn (Zea mays) [5]; preemergence, Rate 250 g/ha): 20
- Plant response rating, Corn (corn (Zea mays) [5]; [22]): 0
- Plant response rating, Johnsongrass [6, 21]: 100
- Plant response rating, Johnsongrass [6, 18]: 0
- Plant response rating (0 to 100), Johnsongrass ([6]; preemergence, Rate 250 g/ha): 90
- Plant response rating, Johnsongrass [6, 22]: 40
- Plant response rating, Kochia (kochia (Kochia scoparia); [21]): 60
- Plant response rating, Kochia (kochia (Kochia scoparia); [18]): 0
- Plant response rating (0 to 100), Kochia (kochia (Kochia scoparia); preemergence): 30
- Plant response rating, Kochia (kochia (Kochia scoparia); [22]): 20
- Plant response rating, Lambsquarters [7, 21]: 100
- Plant response rating, Lambsquarters [7, 18]: 0
- Plant response rating (0 to 100), Lambsquarters ([7]; preemergence, Rate 250 g/ha): 100
- Plant response rating, Lambsquarters [7, 22]: 80
- Plant response rating, Pigweed [8, 21]: 100
- Plant response rating (0 to 100), Pigweed ([8]; preemergence, Rate 250 g/ha): 30
- Plant response rating, Pigweed [8, 22]: 0
- Plant response rating, Soybean (soybean (Glycine max); [21]): 60
- Plant response rating (0 to 100), Soybean (soybean (Glycine max); preemergence, Rate 250 g/ha): 20
- Plant response rating, Soybean (soybean (Glycine max); [22]): 20
- Plant response rating, Cupgrass, Woolly [9, 21]: 100
- Plant response rating, Cupgrass, Woolly [9, 18]: 30
- Plant response rating (0 to 100), Cupgrass, Woolly ([9]; preemergence, Rate 250 g/ha): 60
- Plant response rating, Cupgrass, Woolly [9, 22]: 50
- Plant response rating, Nutsedge [10, 21]: 40
- Plant response rating, Nutsedge [10, 18]: 0
- Plant response rating (0 to 100), Nutsedge ([10]; preemergence, Rate 250 g/ha): 20
- Plant response rating, Nutsedge [10, 22]: 0
- Barnyardgrass plant response rating ([11]; Rate 250 g/ha): 70
- Barnyardgrass plant response rating ([11]; Rate 500 g/ha): 100
- Plant response rating, Barnyardgrass ([11]; Rate 62 g/ha): 30
- Plant response rating, Barnyardgrass ([11]; Rate 125 g/ha): 60
- Ducksalad plant response rating ([12]; Rate 250 g/ha): 40
- Ducksalad plant response rating ([12]; Rate 500 g/ha): 100
- Plant response rating, Ducksalad ([12]; Rate 62 g/ha): 20
- Rice plant response rating (rice (Oryza saliva); Rate 250 g/ha): 0
- Rice plant response rating (rice (Oryza saliva); Rate 500 g/ha): 60
- Plant response rating, Rice (rice (Oryza saliva); Rate 62 g/ha): 0
- Plant response rating, Rice (rice (Oryza saliva); Rate 125 g/ha): 0
- Flatsedge plant response rating ([13]; Rate 250 g/ha): 100
- Flatsedge plant response rating ([13]; Rate 500 g/ha): 100
- Plant response rating, Flatsedge ([13]; Rate 62 g/ha): 90
- Plant response rating, Flatsedge ([13]; Rate 125 g/ha): 90
- Plant response rating (0 to 100), Nightshade (Nightshade [14]; Rate 250 g/ha): 30
- Plant response rating, Sunflower (Sunflower; Rate 125 g/ha): 0
